In patent US20250382332A1, “NOVEL ALPHA-FACTOR BASED PEPTIDES WITH ANTIFUNGAL ACTIVITY” (INVAIO SCIENCES, INC., priority 2024, published 2025):
Peptide text beside a SMILES is read from it.

Test system: Botrytis cinerea (B05.10)
Experiment: Resazurin antifungal assay of 180 alpha-factor peptide variants towards Botrytis (Example 2)
Type: cell-based
Parameters: key to active against Botrytis at 15 μM / active against Botrytis at 10 μM: Peptides that showed greater than 90% inhibition were considered active against Botrytis
Conditions: for Inhibition at 10 μM / Inhibition at 15 μM / Inhibition at 20 μM / Inhibition at 50 μM / Inhibition at 100 μM: % inhibition of fungal growth, Botrytis conidia, resazurin; for Inhibition at 10 μM: peptide 10 μM; for Inhibition at 20 μM: peptide 20 μM; for Inhibition at 50 μM: peptide 50 μM; for Inhibition at 100 μM: peptide 100 μM
In short: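 B. cinerea B05.10 conidia (5000/well) were exposed to peptides at 100, 50, 20, 15 and 10 μM final for 24 h at 20° C. Resazurin was then added and fluorescence read at 570/620 nm. Percent growth inhibition was calculated against conidia-only wells, with four technical replicates.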

SMILES | Inhibition at 10 μM [%] | Inhibition at 15 μM (peptide 15 μM) [%] | Inhibition at 20 μM [%] | Inhibition at 50 μM [%] | Inhibition at 100 μM [%] | active against Botrytis at 15 μM (peptide 15 μM)
CC[C@H](C)[C@H](NC(=O)[C@H](Cc1c[nH]c2ccccc12)NC(=O)[C@H](Cc1c[nH]cn1)NC(=O)[C@@H](N)CCCCN)C(=O)N[C@H](C(=O)N[C@@H](CC(C)C)C(=O)N[C@@H](CCCCN)C(=O)N[C@@H](CO)C(=O)NCC(=O)N[C@@H](CCSC)C(=O)N1CCC[C@H]1C(=O)N[C@@H](CCSC)C(=O)N[C@@H](Cc1ccc(O)cc1)C(=O)O)[C@@H](C)O [compound 59] (H-KHWITLKSGMPMY-OH; N-terminus and C-terminus assumed) | <90 | <90 | 90.97 | 100 | 100 | –
CC[C@H](C)[C@H](NC(=O)[C@H](CCCCN)NC(=O)[C@H](CC(C)C)NC(=O)[C@H](CCC(N)=O)NC(=O)[C@H](CC(C)C)NC(=O)[C@@H](NC(=O)[C@H](CCCCN)NC(=O)[C@@H](N)Cc1c[nH]c2ccccc12)[C@@H](C)O)C(=O)NCC(=O)N[C@@H](C)C(=O)N1CCC[C@H]1C(=O)N[C@@H](CCSC)C(=O)N[C@@H](Cc1ccc(O)cc1)C(=O)O [compound 60] (H-WKTLQLKIGAPMY-OH; N-terminus and C-terminus assumed) | <90 | – | <90 | 100 | 100 | –
CSCC[C@H](NC(=O)[C@@H]1CCCN1C(=O)[C@H](CCC(N)=O)NC(=O)CNC(=O)[C@@H]1CCCN1C(=O)[C@H](Cc1ccccc1)NC(=O)[C@H](CC(C)C)NC(=O)[C@H](CCCCN)NC(=O)[C@H](CC(C)C)NC(=O)[C@H](Cc1c[nH]c2ccccc12)NC(=O)[C@H](Cc1c[nH]cn1)NC(=O)[C@@H](N)CCCCN)C(=O)N[C@@H](Cc1ccc(O)cc1)C(=O)O [compound 61] (H-KHWLKLFPGQPMY-OH; N-terminus and C-terminus assumed) | <90 | <90 | 98.64 | 100 | 100 | –
CC[C@H](C)[C@H](NC(=O)[C@H](CCCCN)NC(=O)[C@@H](NC(=O)[C@H](CCCCN)NC(=O)[C@H](CC(C)C)NC(=O)[C@H](Cc1c[nH]c2ccccc12)NC(=O)[C@H](Cc1c[nH]cn1)NC(=O)[C@@H](N)CCCCN)[C@@H](C)CC)C(=O)NCC(=O)N[C@@H](CCC(=O)O)C(=O)N1CCC[C@H]1C(=O)N[C@@H](CCSC)C(=O)N[C@@H](Cc1ccc(O)cc1)C(=O)O [compound 62] (H-KHWLKIKIGEPMY-OH; N-terminus and C-terminus assumed) | <90 | 98.89 | 100 | 100 | 100 | active
CC[C@H](C)[C@H](NC(=O)[C@H](CCC(N)=O)NC(=O)[C@H](CC(C)C)NC(=O)[C@H](Cc1c[nH]c2ccccc12)NC(=O)[C@H](CCCNC(=N)N)NC(=O)[C@@H]1CCCN1)C(=O)N[C@@H](CCCCN)C(=O)N[C@@H](CCCCN)C(=O)NCC(=O)N[C@@H](CCC(N)=O)C(=O)N[C@@H](CO)C(=O)N[C@@H](CCSC)C(=O)N[C@@H](Cc1ccc(O)cc1)C(=O)O [compound 63] (H-PRWLQIKKGQSMY-OH; N-terminus and C-terminus assumed) | <90 | – | <90 | 100 | 100 | –
CSCC[C@H](NC(=O)CNC(=O)[C@H](CO)NC(=O)CNC(=O)[C@@H]1CCCN1C(=O)[C@H](CCCCN)NC(=O)[C@H](Cc1ccccc1)NC(=O)[C@H](CCC(N)=O)NC(=O)[C@H](CC(C)C)NC(=O)[C@H](Cc1c[nH]c2ccccc12)NC(=O)[C@H](Cc1c[nH]cn1)NC(=O)[C@@H](N)CCCCN)C(=O)N[C@@H](Cc1ccc(O)cc1)C(=O)O [compound 64] (H-KHWLQFKPGSGMY-OH; N-terminus and C-terminus assumed) | <90 | <90 | 98.09 | 100 | 100 | –
